Measured values taken from publication PMC8315004, “Discovery of Small-Molecule Inhibitors of SARS-CoV-2 Proteins Using a Computational and Experimental Pipeline” (Frontiers in Molecular Biosciences, 2021).
Several values for one entry are separate records, joined by “and”; a condition that tells them apart may be missing. Equal entries are not always repeated. Where two headings read alike, the source gives them in different places.

Columns and labels:
[1] = tested on: SARS-CoV-2 expressing the mNeon reporter gene; assay: microbe, parasite or virus in culture; type: cell-based; conditions: read-out: IC50 against SARS-CoV-2
in vitro = conditions: African green monkey
[2] = target: ACE2-RBD binding (SARS-CoV-2 RBD / human ACE2-Fc) (Severe acute respiratory syndrome coronavirus 2, UniProt P0DTC2); assay: biochemical; conditions: for RMAX of ACE2-RBD binding: RBD pre-treated with 50 μM compound, DMSO only 0.3044; for ACE2-RBD binding versus inhibitor concentration (in words): RBD pre-treated with increasing concentrations; for inhibition at 50 µM: pre-treatment with 50 μM compound, from Rmax with vs without compound
SARS-CoV-2 M^pro [3] = target: T1, SARS-CoV-2 M^pro (Severe acute respiratory syndrome coronavirus 2, UniProt P0DTD1); assay: biochemical; parameters: inhibition: dose or concentration left out as unconfirmed; conditions: for IC50: normalized FRET data, technical duplicates, end-point about 4 h, read-out: IC50 against Mpro, FRET values; for inhibition of the activity of Mpro in secondary screen: re-screen at 100 μM
SARS-CoV-2 M^pro [4] = target: T1, SARS-CoV-2 M^pro; assay: Mpro substrate cleavage by gel electrophoresis (SDS-PAGE) and densitometry; type: biochemical; conditions: normalized gel densitometry data (red values of Figure 2D); read-out: IC50 against Mpro, gel electrophoresis and densitometry
Mpro [5] = conditions: slightly shorter fluorogenic substrate; ref Li et al., 2020; read-out: IC50 as Mpro inhibitor (literature); cited from earlier work
Mpro [6] = conditions: cited from earlier work
VSV-SARS2 = assay: microbe, parasite or virus in culture; type: cell-based; conditions: for inhibition at 10 µM: read-out: inhibition of VSV-SARS2 infection (efficacy); for IC50: read-out: IC50 against VSV-SARS2
[7] = Severe acute respiratory syndrome coronavirus 2, Vero, 18 h
[8] = initial screen, Table S4, read-out: Normalized Percent FRET inhibition
[9] = Vesicular stomatitis virus, Vero
[10] = initial screen, 100 μM of drug, Table S4

`COc1ccc(-c2ccc3cc(C(=O)O)ccc3c2)cc1C12CC3CC(CC(C3)C1)C2` [Adapalene] showed an IC50 [1, 7] of roughly 10 µM, an IC50 [1] of 9.6 µM and a CC50 (in vitro) of 60.7 µM. The “RMAX of ACE2-RBD binding” value [2] was 0.2322, the “ACE2-RBD binding versus inhibitor concentration (in words)” value [2] was “concentration-dependent decrease” and the inhibition at 50 µM [2] was 23.8%. It also gave an inhibition (SARS-CoV-2 M^pro [3]; [8]) of 0.236%.

Work on `CCOc1nc2cccc(C(=O)OC(C)OC(=O)OC3CCCCC3)c2n1Cc1ccc(-c2ccccc2-c2nnn[nH]2)cc1` (centres unmarked) [Candesartan Cilexetil] yielded an IC50 [1, 7] of roughly 10 µM, an IC50 [1] of 10.4 µM and a CC50 (in vitro) greater than 100 µM. For the same molecule, the IC50 (SARS-CoV-2 M^pro [4]) was 77.1 µM, the IC50 (Mpro [5]) was 2.8 µM and the inhibition (SARS-CoV-2 M^pro [3]; [8]) was 153%. For the same molecule, the IC50 (SARS-CoV-2 M^pro [3]) was ~67 µM and 67.4 µM and the “inhibition of the activity of Mpro in secondary screen” value (“inhibition of the activity of Mpro” for short) (SARS-CoV-2 M^pro [3]) was “completely inhibit”.

In the case of `O=c1c2ccccc2[se]n1-c1ccccc1` [Ebselen], the “Mpro inhibitor potency (literature, in words)” value (Mpro [6]) is listed as “low micromolar” and the inhibition at 100 µM (SARS-CoV-2 M^pro [3]; read-out: Normalized Percent FRET inhibition) is listed as 117%.

`Cc1cc2nc3c(=O)[nH]c(=O)nc-3n(C[C@H](O)[C@H](O)[C@H](O)COP(=O)(O)OP(=O)(O)OC[C@H]3O[C@@H](n4cnc5c(N)ncnc54)[C@H](O)[C@@H]3O)c2cc1C` [Flavin Adenine Dinucleotide Disodium] gave an IC50 (SARS-CoV-2 M^pro [4]) greater than 100 µM, an inhibition (SARS-CoV-2 M^pro [3]; [8]) of 149% and an IC50 (SARS-CoV-2 M^pro [3]) of 42.5 µM. The “inhibition of the activity of Mpro” value (SARS-CoV-2 M^pro [3]) was “completely inhibit”.

In the case of `C#C[C@]1(O)CC[C@H]2[C@@H]3CCC4=CC(=O)CCC4=C3C=C[C@@]21CC` [Gestrinone], the “RMAX of ACE2-RBD binding” value [2] is reported as 0.2366, the “ACE2-RBD binding versus inhibitor concentration (in words)” value [2] is reported as “concentration-dependent decrease” and the inhibition at 50 µM [2] is reported as 22%.

For `C#Cc1cccc(Nc2ncnc3cc4c(cc23)OCCOCCOCCO4)c1` [Icotinib], the “RMAX of ACE2-RBD binding” value [2] was 0.2406, the “ACE2-RBD binding versus inhibitor concentration (in words)” value [2] was “concentration-dependent decrease” and the inhibition at 50 µM [2] was 21%. The inhibition (SARS-CoV-2 M^pro [3]; [8]) was -0.628%.

For `Cc1ccc(NC(=O)c2ccc(CN3CCN(C)CC3)cc2)cc1Nc1nccc(-c2cccnc2)n1` [Imatinib], the inhibition at 10 µM (VSV-SARS2; [9]) was no less than 50%.

Work on `CS(=O)(=O)CCNCc1ccc(-c2ccc3ncnc(Nc4ccc(OCc5cccc(F)c5)c(Cl)c4)c3c2)o1` [Lapatinib] yielded an IC50 [1, 7] of 31.1 µM, an IC50 (VSV-SARS2; [9]) of less than 10 µM and an inhibition at 10 µM (VSV-SARS2; [9]) of no less than 50%. For the same molecule, the IC50 (VSV-SARS2) was 7.1 µM, the CC50 (in vitro) was 69.6 µM and the “RMAX of ACE2-RBD binding” value [2] was 0.2344. For the same molecule, the “ACE2-RBD binding versus inhibitor concentration (in words)” value [2] was “concentration-dependent decrease” and the inhibition at 50 µM [2] was 23%.

With `Cc1ccc(Nc2nccc(N(C)c3ccc4c(C)n(C)nc4c3)n2)cc1S(N)(=O)=O` [Pazopanib] the inhibition (SARS-CoV-2 M^pro [3]; [8]) was -0.955%.

In the case of `CO[C@H]1C[C@H](O[C@H]2CC[C@]3(C)[C@H]4CC[C@]5(C)[C@@H](C6=CC(=O)OC6)CC[C@]5(O)[C@@H]4CC[C@]3(O)C2)O[C@H](C)[C@H]1O[C@@H]1O[C@H](CO)[C@@H](O)[C@H](O)[C@H]1O` [Periplocin], the “Normalized Percent FRET inhibition” value (SARS-CoV-2 M^pro [3]; [10]) is reported as -1.536%.

`COc1ccc2nc3cc(Cl)ccc3c(Nc3cc(CN4CCCC4)c(O)c(CN4CCCC4)c3)c2n1` [Pyronaridine] showed an inhibition (SARS-CoV-2 M^pro [3]; [8]) of -8.33%.

For `CNC(=O)c1cnn(-c2nc(N)c3ncn([C@@H]4O[C@H](CO)[C@@H](O)[C@H]4O)c3n2)c1` [Regadenoson], the “Normalized Percent FRET inhibition” value (SARS-CoV-2 M^pro [3]; [10]) was -0.1877%.

Work on `Cc1cc(/C=C/C#N)cc(C)c1Nc1ccnc(Nc2ccc(C#N)cc2)n1` [Rilpivirine] yielded an inhibition (SARS-CoV-2 M^pro [3]; [8]) of 5.87%.

For `Cc1nc2n(c(=O)c1CCN1CCC(c3noc4cc(F)ccc34)CC1)CCCC2` [Risperidal], the “Normalized Percent FRET inhibition” value (SARS-CoV-2 M^pro [3]; 100 µM) was -1.672.

Molecule `C=CC[N+]1([C@H]2C[C@H]3[C@@H]4CC[C@H]5C[C@H](O)[C@@H](N6CCOCC6)C[C@]5(C)[C@H]4CC[C@]3(C)[C@H]2OC(C)=O)CCCC1` [Rocuronium bromide] has an inhibition (SARS-CoV-2 M^pro [3]; [8]) of 11.3%.

In the case of `Cc1cncc(CN2CCC(=C3c4ccc(Cl)cc4CCc4cccnc43)CC2)c1.O=C(O)/C=C/C(=O)O` [Rupatadine Fumarate], the “Normalized Percent FRET inhibition” value (SARS-CoV-2 M^pro [3]; [10]) is reported as -2.415%.

For `C[C@@H]1O[C@@H](OC[C@H]2O[C@@H](Oc3c(-c4ccc(O)c(O)c4)oc4cc(O)cc(O)c4c3=O)[C@H](O)[C@@H](O)[C@@H]2O)[C@H](O)[C@H](O)[C@H]1O` [Rutin], the inhibition (SARS-CoV-2 M^pro [3]; [8]) was -0.554%.

With `CC(C)(C)NC(=O)[C@@H]1C[C@@H]2CCCC[C@@H]2CN1C[C@@H](O)[C@H](Cc1ccccc1)NC(=O)[C@H](CC(N)=O)NC(=O)c1ccc2ccccc2n1` [Saquinavir] the inhibition (SARS-CoV-2 M^pro [3]; [8]) was -1.34%.

For `COc1ccc2c(O[C@@H]3C[C@H]4C(=O)N[C@]5(C(=O)NS(=O)(=O)C6CC6)C[C@H]5/C=C\CCCCN(C)C(=O)[C@@H]4C3)cc(-c3nc(C(C)C)cs3)nc2c1C` [Simeprevir], the inhibition (SARS-CoV-2 M^pro [3]; [8]) was 72.9%.

Work on `CC(C)OC(=O)[C@H](C)N[P@](=O)(OC[C@H]1O[C@@H](n2ccc(=O)[nH]c2=O)[C@](C)(F)[C@@H]1O)Oc1ccccc1` [Sofosbuvir] yielded an inhibition (SARS-CoV-2 M^pro [3]; [8]) of -0.4%.

`C=CC[C@@H]1/C=C(\C)C[C@H](C)C[C@H](OC)[C@H]2O[C@@](O)(C(=O)C(=O)N3CCCC[C@H]3C(=O)O[C@H](/C(C)=C/[C@@H]3CC[C@@H](O)[C@H](OC)C3)[C@H](C)[C@@H](O)CC1=O)[C@H](C)C[C@@H]2OC` [Tacrolimus] gave an inhibition (SARS-CoV-2 M^pro [3]; [8]) of -0.417%.

Molecule `Cc1nc(C)c2c(n1)N(Cc1ccc(-c3ccccc3-c3nnn[nH]3)cc1)C(=O)CC2` [Tasosartan] has an inhibition (SARS-CoV-2 M^pro [3]; [8]) of -1.96%.

Molecule `CN(C)[C@@H]1C(O)=C(C(N)=O)C(=O)[C@@]2(O)C(O)=C3C(=O)c4c(O)cccc4[C@@](C)(O)[C@H]3C[C@@H]12` [Tetracycline] has an IC50 (SARS-CoV-2 M^pro [4]) of 38.2 µM, an inhibition (SARS-CoV-2 M^pro [3]; [8]) of 40.3% and an IC50 (SARS-CoV-2 M^pro [3]) of 20.8 µM. For the same molecule, the “inhibition of the activity of Mpro” value (SARS-CoV-2 M^pro [3]) was “completely inhibit”.

In the case of `CN(C)c1cc(NC(=O)CNC(C)(C)C)c(O)c2c1C[C@H]1C[C@H]3[C@H](N(C)C)C(O)=C(C(N)=O)C(=O)[C@@]3(O)C(O)=C1C2=O` [Tigecycline], the IC50 (SARS-CoV-2 M^pro [4]) is reported as 29 µM, the inhibition (SARS-CoV-2 M^pro [3]; [8]) is reported as 56.5% and the IC50 (SARS-CoV-2 M^pro [3]) is reported as 21.5 µM and 20.5 µM. For the same molecule, the “inhibition of the activity of Mpro” value (SARS-CoV-2 M^pro [3]) was “completely inhibit”.

For `CC(=O)Nc1cccc(-n2c(=O)n(C3CC3)c(=O)c3c(Nc4ccc(I)cc4F)n(C)c(=O)c(C)c32)c1.C[S+](C)[O-]` [Trametinib DMSO solvate], the “Normalized Percent FRET inhibition” value (SARS-CoV-2 M^pro [3]; [10]) was 1.516%.

With `CC(=O)O[C@H]1C[C@@H]2CC[C@@H]3[C@H](CC[C@@]4(C)[C@H]3C[C@H]([N+]3(C)CCCCC3)[C@@H]4OC(C)=O)[C@@]2(C)C[C@@H]1N1CCCCC1` [Vecuronium bromide] the inhibition (SARS-CoV-2 M^pro [3]; [8]) was 4.13%.

Work on `CCOC(=O)N[C@@H]1CC[C@@H]2[C@@H](C1)C[C@H]1C(=O)O[C@H](C)[C@H]1[C@H]2/C=C/c1ccc(-c2cccc(F)c2)cn1` [Vorapaxar] yielded an inhibition (SARS-CoV-2 M^pro [3]; [8]) of -0.416%.

For `COc1cc(C(=O)NS(=O)(=O)c2ccccc2C)ccc1Cc1cn(C)c2ccc(NC(=O)OC3CCCC3)cc12` [Zafirlukast], the inhibition (SARS-CoV-2 M^pro [3]; [8]) was 3.83%.

With Eptifibatide acetate the “Normalized Percent FRET inhibition” value (SARS-CoV-2 M^pro [3]; [10]) was 2.056%.

In the case of Ginkgolide C, the “Normalized Percent FRET inhibition” value (SARS-CoV-2 M^pro [3]; [10]) is reported as -0.7419%.

With Hyaluronic acid the “Normalized Percent FRET inhibition” value (SARS-CoV-2 M^pro [3]; [10]) was -2.844%.

With Ivermectin the “Normalized Percent FRET inhibition” value (SARS-CoV-2 M^pro [3]; [10]) was -0.9158%.

With Maraviroc the “Normalized Percent FRET inhibition” value (SARS-CoV-2 M^pro [3]; [10]) was -2.69%.
